Results on 1 compound are retold here after US20260115183A1, “METHOD AND COMPOSITION FOR PROTECTING OR IMPROVING OVARIAN FUNCTION IN MAMMALS” (NANJING NUTRABUILDING BIO-TECH CO., LTD., priority 2023, published 2026).

The structures appear in SMILES notation.

Test [1] deals with Female Wistar rats. Description: OGTT blood glucose by glucose oxidase method in rats injected with testosterone propionate. The format is in vivo. Particulars: different time points within 120 min, last week of gavage. On the procedure: (§1) Female Wistar rats weighing 220-230 g were selected, and all rats were free to eat. One week later, without any intervention, they were randomly divided into control group CK (n=10; Placebo); Model group MD (n=10; Placebo); Experimental group A (n=10; Ergothioneine 2.25 mg/kg/d); Experimental group B (n=10; Ergothioneine 2.25 mg/kg/d+Pyrroloquinoline quinone 1.8 mg/kg/d); Experimental group C (n=10; Ergothioneine 2.25 mg/kg/d+Pyrroloquinoline quinone 1.8 mg/kg/d+Oenothera biennis 18 mg/kg/d+inositol 9 mg/kg/d). Four groups of rats were injected with testosterone propionate (10 mg/kg, once a day for 6 weeks) and olive oil continuously. Administration was performed by gavage.
(§2) OGTT, insulin, HOMA-IR and blood lipid were measured in each group at the last week of gavage. After fasting for 16 h, fasting blood glucose (0 min) was measured. Subsequently, rats were intraperitoneally injected with 50% glucose solution (2 g/kg). At each time point (0 min, 30 min, 60 min, 120 min), the blood glucose of rats was measured by glucose oxidase method. […] Serum total cholesterol (TC) and total triglyceride (TG) were detected by total cholesterol detection kit and triglyceride detection kit.
(§3) Graphpad 8.0 software was used to analyze the data, and the result data was expressed as standard deviation (x±s), and the significance was analyzed by one-way ANOVA test.

Test [2] relates to Female Wistar rats. Description: HOMA-IR index from fasting insulin and fasting blood glucose. The format is in vivo. As to conditions: calculated from fasting blood glucose and fasting insulin; Model group 12.5. On the procedure:
as §1, §2, §3

The test system of test [3] is Female Wistar rats. Description: Serum total cholesterol (TC) and total triglyceride (TG) detection. Particulars: rat, in vivo. On the procedure: Female Wistar rats weighing 220-230 g were selected, and all rats were free to eat. One week later, without any intervention, they were randomly divided into control group CK (n=10; Placebo); Model group MD (n=10; Placebo); Experimental group A (n=10; Ergothioneine 2.25 mg/kg/d); Experimental group B (n=10; Ergothioneine 2.25 mg/kg/d+Pyrroloquinoline quinone 1.8 mg/kg/d); Experimental group C (n=10; Ergothioneine 2.25 mg/kg/d+Pyrroloquinoline quinone 1.8 mg/kg/d+Oenothera biennis 18 mg/kg/d+inositol 9 mg/kg/d). Four groups of rats were injected with testosterone propionate (10 mg/kg, once a day for 6 weeks) and olive oil continuously. Administration was performed by gavage. Gavage intervention in each group lasted for 8 weeks. […] OGTT, insulin, HOMA-IR and blood lipid were measured in each group at the last week of gavage. After fasting for 16 h, fasting blood glucose (0 min) was measured. […] At each time point (0 min, 30 min, 60 min, 120 min), the blood glucose of rats was measured by glucose oxidase method. […] Serum total cholesterol (TC) and total triglyceride (TG) were detected by total cholesterol detection kit and triglyceride detection kit. Graphpad 8.0 software was used to analyze the data, and the result data was expressed as standard deviation (x±s), and the significance was analyzed by one-way ANOVA test.

The test system of test [4] is Female Wistar rats. Description: Serum hormone determination (T, E2, LH, FSH) by ELISA in rats injected with testosterone propionate. The format is in vivo. Particulars: after 8 weeks of gavage intervention. On the procedure: Female Wistar rats weighing 220-230 g were selected, and all rats were free to eat. One week later, without any intervention, they were randomly divided into control group CK (n=10; Placebo); Model group MD (n=10; Placebo); Experimental group A (n=10; Ergothioneine 2.25 mg/kg/d); Experimental group B (n=10; Ergothioneine 2.25 mg/kg/d+Pyrroloquinoline quinone 1.8 mg/kg/d); Experimental group C (n=10; Ergothioneine 2.25 mg/kg/d+Pyrroloquinoline quinone 1.8 mg/kg/d+Oenothera biennis 18 mg/kg/d+inositol 9 mg/kg/d). Four groups of rats were injected with testosterone propionate (10 mg/kg, once a day for 6 weeks) and olive oil continuously. Administration was performed by gavage. Gavage intervention in each group lasted for 8 weeks. Finally, the rats were anesthetized with 1% pentobarbital sodium, and the rats were killed when they were estrus after fasting for 16 h. Blood was collected through abdominal aorta, and the serum was taken after centrifugation at 4° C. for 15 min at a speed of 1000 g. Hormone determination: Serum total testosterone T, luteinizing hormone LH, follicle stimulating hormone FSH and estradiol E2 were determined by ELISA. […] Graphpad 8.0 software was used to analyze the data, and the result data was expressed as standard deviation (x±s), and the significance was analyzed by one-way ANOVA test.

Take `C[N+](C)(C)[C@@H](Cc1c[nH]c(=S)[nH]1)C(=O)[O-]` [Experimental group A, Ergothioneine]: in the test with Female Wistar rats [1], the “blood glucose levels compared with the Model group” value is listed as “decreased significantly”. Further, the HMOA-IR index in the test on Female Wistar rats [2] is 11.3. Besides, in the test on Female Wistar rats [3], the “content of TC in serum compared with the Model group” value was “significantly reduce” and the “content of TG in serum compared with the Model group” value is listed as “significantly reduce”. Further, in the test on Female Wistar rats [4], the “serum E2 compared with the Model group” value is reported as “decreased significantly” and the “serum T compared with the Model group” value is given as “decreased significantly”.
